Assay results from publication PMC6120666 (The EMBO Journal, 2018).

Legend:
[1] = system: RIPK2 ubiquitination in U2OS/NOD2 and THP-1 cells; test: Purification of Ub-conjugates (TUBE pulldown), RIPK2 ubiquitination; assay type: cell-based, human; settings: U2OS/NOD2 or THP-1 cells, L18-MDP 200 ng/ml, 1 h
Protocol: For co‐immunoprecipitation of HA‐XIAP with RIPK2, transfected and treated cells were lysed in TBS buffer containing 0.5% NP‐40, cOmplete and PhosSTOP inhibitors (Roche) and the lysate was cleared by centrifugation. The lysates were incubated with anti‐HA‐agarose overnight, washed 3× with lysis buffer, and analyzed by immunoblotting. For GST pulldown experiments, U2OS/NOD2 cells were lysed in TBS lysis buffer containing 0.5% NP‐40, cOmplete and PhosSTOP inhibitors (Roche). Cleared lysates were pretreated with kinase inhibitors or DMSO and incubated with GST‐XIAP‐BIR2 bound to Glutathione Sepharose at 4°C overnight. Bound material was washed 3× with lysis buffer or PBS, eluted with 15 mM Glutathione in PBS, and analyzed by immunoblotting. […] The bound material was eluted and analyzed as described above. […]
PBS, eluted with 15 mM Glutathione in PBS and analyzed by immunoblotting. […]

NanoLuc-RIPK2 [2] = biological target: T1, NanoLuc-RIPK2 (Homo sapiens, UniProt O43353); test: nanoBRET cellular RIPK2 residence time assay in HEKBlue cells; assay type: binding; settings: t1/2 for probe to engage RIPK2 after washout of inhibitor
T1 construct: host or cells: hNOD2-HEKBlue cells
T1 sequence (O43353 whole entry): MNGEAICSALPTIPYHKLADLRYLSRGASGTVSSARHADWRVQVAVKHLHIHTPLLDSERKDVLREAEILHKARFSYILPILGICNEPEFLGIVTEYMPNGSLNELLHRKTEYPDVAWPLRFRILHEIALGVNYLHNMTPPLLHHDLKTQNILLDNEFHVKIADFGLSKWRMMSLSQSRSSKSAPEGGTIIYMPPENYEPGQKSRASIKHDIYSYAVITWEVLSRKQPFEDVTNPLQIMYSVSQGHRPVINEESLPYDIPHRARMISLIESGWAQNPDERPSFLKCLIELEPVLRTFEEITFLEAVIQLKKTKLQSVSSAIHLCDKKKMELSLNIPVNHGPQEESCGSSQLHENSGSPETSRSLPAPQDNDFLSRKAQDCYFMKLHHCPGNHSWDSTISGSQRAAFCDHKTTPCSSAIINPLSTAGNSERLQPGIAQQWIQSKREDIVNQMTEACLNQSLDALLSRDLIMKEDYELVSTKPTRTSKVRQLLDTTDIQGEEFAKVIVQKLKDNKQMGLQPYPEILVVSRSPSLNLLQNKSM

[3] = biological target: T2, XIAP BIR2 - RIPK2 interaction (Homo sapiens, UniProt O43353); test: GST-BIR2-XIAP pulldown of RIPK2; assay type: binding; settings: for pulldown of RIPK2 by GST-BIR2-XIAP from cell lysates: U2OS/NOD2 lysates, inhibitors at 100-fold IC50 of RIPK2 kinase activity; for GST-BIR2-XIAP binding to recombinant RIPK2 kinase domain: recombinant human RIPK2 KD (dephosphorylated), same inhibitor concentrations
T2 construct: U2OS/NOD2 cells were lysed in TBS lysis buffer; endogenous in cells; host or cells: U2OS/NOD2 cell lysate (RIPK2); E. coli BL21 (GST-BIR2-XIAP)
Protocol: For co‐immunoprecipitation of HA‐XIAP with RIPK2, transfected and treated cells were lysed in TBS buffer containing 0.5% NP‐40, cOmplete and PhosSTOP inhibitors (Roche) and the lysate was cleared by centrifugation. The lysates were incubated with anti‐HA‐agarose overnight, washed 3× with lysis buffer, and analyzed by immunoblotting. For GST pulldown experiments, U2OS/NOD2 cells were lysed in TBS lysis buffer containing 0.5% NP‐40, cOmplete and PhosSTOP inhibitors (Roche). Cleared lysates were pretreated with kinase inhibitors or DMSO and incubated with GST‐XIAP‐BIR2 bound to Glutathione Sepharose at 4°C overnight. Bound material was washed 3× with lysis buffer or PBS, eluted with 15 mM Glutathione in PBS, and analyzed by immunoblotting. […] The bound material was eluted and analyzed as described above.
For coimmunoprecipitation of HA-XIAP with RIPK2, transfected and treated cells were lysed in TBS buffer containing 0.5% NP-40, cOmplete and PhosSTOP inhibitors (Roche) and the lysate was cleared by centrifugation. The lysates were incubated with anti-HA-agarose overnight, washed 3x with lysis buffer and analyzed by immunoblotting. For GST pull-down experiments, U2OS/NOD2 were lysed in TBS lysis buffer containing 0.5% NP-40, cOmplete and PhosSTOP inhibitors (Roche).
Cleared lysates were pretreated with kinase inhibitors or DMSO and incubated with GST-XIAP-BIR2 bound to Glutathione Sepharose at 4 °C overnight. Bound material was washed 3x with lysis buffer or PBS, eluted with 15 mM Glutathione in PBS and analyzed by immunoblotting. In pull-down […]
inhibitors or DMSO control in PBS were added together with RIPK2 kinase domain to GST-XIAP-BIR2 bound to Glutathione Sepharose. The bound material was eluted and analyzed as described above. […]

U2OS/NOD2 cells = test: Intracellular flow cytometry of CXCL8 after L18-MDP; assay type: cell-based, human; settings: L18-MDP 200 ng/ml, 4 h; for inhibition of NOD2 signaling (CXCL8) in cells expressing RIPK2 T95W: U2OS/NOD2 RIPK2 KO cells reconstituted with T95W gatekeeper mutant; for L18-MDP-induced CXCL8 production: U2OS/NOD2 cells
Protocol: Purified material and lysates were analyzed by immunoblotting. […] Numbering below schematic refers to amino acid residues in human RIPK2 and indicate domain boundaries. […] Data information: Data in (A, B, D, H) represent the mean ± SEM of 2–4 independent experiments, each performed in duplicate. […] Two‐way ANOVA was used to determine statistical significance. See also Fig EV1.Source data are available online for this figure.
Dark gray represents areas occupied by RIPK2; white areas indicate empty spaces in CSLP binding pocket. […] Dotted black box indicates region shown for models with CSLP37 and CSLP43. • Molecular docking model of RIPK2 kinase domain in complex with CSLP43 (green) based on RIPK2/CSLP18 structure from (D). […] Two‐way ANOVA was used to determine statistical significance. See also Fig EV2.
GST-BIR2-XIAP as indicated. Intensity quantification of SPOTs was performed using ImageJ software
Dual luciferase reporter assay
Intracellular flow cytometry of CXCL8
for cell death) or vehicle for 24h. Viability was determined using the CellTiter-Glo® luminescent cell
together with Transfection Carrier DNA (Promega).
After addition of Nano-Glo

NanoLuc-RIPK2 [4] = biological target: T1, NanoLuc-RIPK2; test: nanoBRET cellular RIPK2 target engagement assay in HEKBlue cells; settings: average ± SD of at least three titrations, read-out: IC50, Cellular activity, nanoBRET RIPK2 binding

Row | Compound | RIPK2 ubiquitination after L18-MDP [1] | residence time (NanoLuc-RIPK2 [2]) | pulldown of RIPK2 by GST-BIR2-XIAP from cell lysates [3] | GST-BIR2-XIAP binding to recombinant RIPK2 kinase domain [3] | inhibition of NOD2 signaling (CXCL8) in cells expressing RIPK2 T95W (U2OS/NOD2 cells) | L18-MDP-induced CXCL8 production (U2OS/NOD2 cells) | IC50 (NanoLuc-RIPK2 [4])
1 | CCCS(=O)(=O)Nc1cc(-c2cc(-c3ccc(N4CCNCC4)cc3)cnc2N)cc(F)c1OC [CSLP37] | inhibited RIPK2 ubiquitination | 27.1 min | efficiently antagonized | still antagonized | no longer observed | potent suppression | 36.3 ± 20.2 nM
2 | CCCS(=O)(=O)Nc1cc(-c2cc(-c3ccc(N4CCNCC4)cc3)cnc2N)cc(OC)c1OC [CSLP43] | inhibited RIPK2 ubiquitination | 107 min | efficiently antagonized | still antagonized | no longer observed | potent suppression | 10.1 ± 3.8 nM
3 | CCCS(=O)(=O)Nc1cc(-c2cc(-c3ccc(N4CCNCC4)cc3)cnc2N)ccc1O [CSLP48] | little or no effect | 127 min | little effect |  | not negatively impacted |  | 1230 nM
4 | COc1cc(-c2cc(-c3ccc(N4CCNCC4)cc3)cnc2N)cc(F)c1OC [CSLP55] | little or no effect | 6.8 min | little effect |  | not negatively impacted |  | 195 ± 47.1 nM
5 | Cc1ccc(-c2nn(C(C)(C)CNC(=O)c3ccncc3)c3ncnc(N)c23)cc1 [WEHI‐345, reference compound] |  | 7.5 min |  |  |  |  | 521 ± 172 nM
